Experimental findings from US10508120B2, “TYK2 inhibitors and uses thereof” (Nimbus Lakshmi, Inc., priority 2017, dated 2019) are described below.

A value given as a limit tells only on which side of the number the result lay.

human TYK2 (JH2domain-pseudokinase), sequence (P29597 556-888): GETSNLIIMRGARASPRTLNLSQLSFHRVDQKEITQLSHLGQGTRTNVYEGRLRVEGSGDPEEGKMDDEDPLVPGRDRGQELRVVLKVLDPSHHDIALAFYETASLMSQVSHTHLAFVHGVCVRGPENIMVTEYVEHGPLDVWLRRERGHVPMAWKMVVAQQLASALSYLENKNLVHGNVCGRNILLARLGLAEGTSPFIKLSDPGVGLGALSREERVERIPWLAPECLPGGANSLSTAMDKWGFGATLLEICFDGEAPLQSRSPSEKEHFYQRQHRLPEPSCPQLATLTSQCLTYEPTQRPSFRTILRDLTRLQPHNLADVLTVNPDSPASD
Tyk2 kinase domain (DH1), sequence (P29597 897-1176): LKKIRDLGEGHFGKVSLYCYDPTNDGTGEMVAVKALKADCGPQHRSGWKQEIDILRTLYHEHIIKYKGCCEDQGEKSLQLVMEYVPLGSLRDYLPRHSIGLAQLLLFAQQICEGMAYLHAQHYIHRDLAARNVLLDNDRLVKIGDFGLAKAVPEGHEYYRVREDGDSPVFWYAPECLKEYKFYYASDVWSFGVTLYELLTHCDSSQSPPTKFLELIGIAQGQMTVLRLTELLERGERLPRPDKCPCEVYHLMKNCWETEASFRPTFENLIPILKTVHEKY

The first assay concerns the target human TYK2 (JH2domain-pseudokinase) (Homo sapiens (Human), UniProt P29597). Description: TYK2 JH2 Domain Binding Assay (KINOMEscan).
Details: not given
The procedure, abridged: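 Kds, run in duplicate, came from Hill fits (slope fixed at −1) of an 11-point 3-fold dilution series starting at 30,000 nM. Bead-retained TYK2 JH2 (aa G556–D888)–NFkB DBD fusion, DNA-tagged and expressed in HEK293 cells, was read by qPCR after 1 h room-temperature binding in 0.9% DMSO.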
Consider `CNc1cc(Nc2cccn([C@@H]3C[C@H]3OC)c2=O)nc2c(C(=O)NC3CC3)cnn12` [I-1227], for which the Kd is less than 0.2 nM. On the same count and under the same terms, the figure for `CNc1cc(Nc2cccc(N3CCCC3=O)n2)nc2c(C(=O)NC3COC3)cnn12` [I-88] is greater than 10 nM; for `CNc1cc(Nc2cccn([C@H]3CCCOC3)c2=O)nc2c(C(=O)N[C@@H]3C[C@H]3OC)cnn12` [I-1248] it is less than 0.2 nM.

The compound `CNc1cc(Nc2cccn(C(C)C)c2=O)nc2c(C(=O)N[C@@H]3CCC[C@@](C)(OC)C3)cnn12` [I-1235] yielded a Kd of less than 0.2 nM.

`CNc1cc(Nc2cccn([C@@H]3CCC[C@H](C#N)C3)c2=O)nc2c(C(=O)N[C@@H]3C[C@@H]3F)cnn12` [I-1219] displayed a dissociation constant (Kd) of less than 0.2 nM. The same measure, in the same setting: the figure for `CNc1cc(Nc2cccn(C(C)C)c2=O)nc2c(C(=O)N[C@H]3CC[C@@]3(C)O)cnn12` [I-1371] is less than 0.2 nM; for `CNc1cc(-c2cn(C3CCOCC3)c3ncccc23)nc2c(C(=O)N[C@H]3COC[C@H]3O)cnn12` [I-1408] it is 0.2 to 1 nM. The same measure, in the same setting: the figure for `CNc1cc(Nc2cccn(C3CC(F)(F)C3)c2=O)nc2c(C(=O)N[C@@H]3CC[C@@H]3O)cnn12` [I-1305] is 0.2 to 1 nM; for `CNc1cc(Nc2cccn(C3CC(F)(F)C3)c2=O)nc2c(C(=O)N[C@@H]3CC[C@@H](OC)C3)cnn12` [I-1210] it is 0.2 to 1 nM; for `CNc1cc(Nc2cccn(-c3ccccn3)c2=O)nc2c(C(=O)N[C@H]3C[C@@H]3OC)cnn12` [I-1412] it is 0.2 to 1 nM. Still for that read-out and setting: the figure for `CNc1cc(Nc2cccn(C3CCOCC3)c2=O)nc2c(C(=O)N[C@H]3CCC[C@H](O)C3)cnn12` [I-1225] is less than 0.2 nM; for `CNc1cc(Nc2cccn(-c3ccc(C)nc3)c2=O)nc2c(C(=O)N[C@H]3CCC[C@H](OC)C3)cnn12` [I-1188] it is 1 to 10 nM.

In the case of `CNc1cc(Nc2cccn([C@H]3CCC[C@@H](C#N)C3)c2=O)nc2c(C(=O)NC3CC3)cnn12` [I-1245], the dissociation constant (Kd) is 0.2 to 1 nM. The same measure, in the same setting: the result for `CNc1cc(Nc2cccn([C@H]3CCCN(CCC#N)C3)c2=O)nc2c(C(=O)NC3CC3)cnn12` [I-1347, (S)-5-((1-(1-(2-cyanoethyl)piperidin-3-yl)-2-oxo-1,2-dihydropyridin-3-yl)amino)-N-cyclopropyl-7-(methylamino)pyrazolo[1,5-a]pyrimidine-3-carboxamide] reads 1 to 10 nM; that for `CNc1cc(Nc2cccn([C@H]3CCC[C@H](OC)C3)c2=O)nc2c(C(=O)N[C@H]3CC[C@@H]3OC)cnn12` [I-1375], 1 to 10 nM. Still for that read-out and setting: the result for `CNc1cc(Nc2cccn(C3CCCCC3)c2=O)nc2c(C(=O)N[C@@H]3COC[C@@H]3O)cnn12` [I-1348] reads less than 0.2 nM; that for `CNc1cc(-c2cn(C3CCOCC3)c3ncccc23)nc2c(C(=O)N[C@H]3COC[C@H]3O)cnn12` [I-1308], greater than 10 nM; that for `CNc1cc(Nc2cccn(C3CCCCC3)c2=O)nc2c(C(=O)N[C@H]3COC[C@H]3O)cnn12` [I-1349], 1 to 10 nM. Regarding `CNc1cc(Nc2cccn([C@H]3CCC[C@@H](O)C3)c2=O)nc2c(C(=O)N[C@@H]3CC[C@H]3OC)cnn12` [I-1192], the dissociation constant (Kd) is less than 0.2 nM.

With `CNc1cc(Nc2cc(C)nc(C)c2)nc2c(C(N)=O)cnn12` [I-13], the Kd was in the range of 1 to 10 nM. On the same count and under the same terms, the figure for `CNc1cc(Nc2cccn(C3CC(F)(F)C3)c2=O)nc2c(C(=O)N[C@@H]3CC[C@H](O)C3)cnn12` [I-1212] is greater than 10 nM; for `CNc1cc(Nc2cccn(C3CCOCC3)c2=O)nc2c(C(=O)N[C@H]3CC[C@H](OC)C3)cnn12` [I-1194] it is less than 0.2 nM; for `CNc1cc(Nc2cccn(C3CC(F)(F)C3)c2=O)nc2c(C(=O)N[C@@H]3CC[C@@H]3O)cnn12` [I-1391] it is less than 0.2 nM. Regarding `CNc1cc(Nc2cccn([C@@H]3CCC[C@@H]3OC)c2=O)nc2c(C(=O)NC3CC3)cnn12` [I-524], the dissociation constant Kd lay in the range of 1 to 10 nM.

`CNc1cc(Nc2cccn(C3CCOCC3)c2=O)nc2c(C(=O)N[C@@H]3CC[C@@H](OC)C3)cnn12` (stereo in doubt) [I-1334, N-(3-methoxycyclopentyl)-7-(methylamino)-5-((2-oxo-1-(tetrahydro-2H-pyran-4-yl)-1,2-dihydropyridin-3-yl)amino)pyrazolo[1,5-a]pyrimidine-3-carboxamide] yielded a dissociation constant Kd of less than 0.2 nM. The same measure, in the same setting: the result for `CNc1cc(Nc2cccn(C3CCOCC3)c2=O)nc2c(C(=O)N[C@@H]3CCC[C@@H](OC)C3)cnn12` [I-1297] reads 0.2 to 1 nM.

For `CNc1cc(Nc2cccn(C3CCOCC3)c2=O)nc2c(C(=O)N[C@@H]3CCCC[C@@]3(C)O)cnn12` [I-1196], the dissociation constant Kd was in the range of 0.2 to 1 nM.

`CNc1cc(-c2cn(C(C)C)c3ncc(F)cc23)nc2c(C(=O)N[C@@H]3CC[C@H]3OC)cnn12` [I-1392] came in with a Kd of 0.2 to 1 nM. On the same count and under the same terms, the result for `CNc1cc(-c2cn([C@@H]3CCC[C@H]3OC)c3ncccc23)nc2c(C(=O)NC3CCC3O)cnn12` (mixture of isomers) [I-1341, N-(2-hydroxycyclobutyl)-5-(1-((1R,2R)-2-methoxycyclopentyl)-1H-pyrrolo[2,3-b]pyridin-3-yl)-7-(methylamino)pyrazolo[1,5-a]pyrimidine-3-carboxamide] reads greater than 10 nM; that for `CNc1cc(Nc2cccn([C@H]3CC[C@@H]3O)c2=O)nc2c(C(=O)N[C@@H]3CC[C@H]3OC)cnn12` [I-1384], 0.2 to 1 nM; that for `CNc1cc(-c2cn([C@H]3CCCOC3)c3ncccc23)nc2c(C(=O)N[C@@H]3CC[C@H]3OC)cnn12` [I-1282], 1 to 10 nM. The same measure, in the same setting: the figure for `CNc1cc(Nc2cccn3ccnc23)nc2c(C(=O)N[C@H]3COC[C@H]3O)cnn12` [I-1262] is 1 to 10 nM. Still for that read-out and setting: the figure for `CNc1cc(-c2cn([C@@H]3CCC[C@H]3OC)c3ncccc23)nc2c(C(=O)N[C@H]3CC[C@H]3O)cnn12` [I-1246, N-((1S,2R)-2-hydroxycyclobutyl)-5-(1-((1R,2R)-2-methoxycyclopentyl)-1H-pyrrolo[2,3-b]pyridin-3-yl)-7-(methylamino)pyrazolo[1,5-a]pyrimidine-3-carboxamide] is 0.2 to 1 nM; for `CNc1cc(-c2cn(C3CCOCC3)c3ncccc23)nc2c(C(=O)N[C@H]3CCCC[C@]3(C)O)cnn12` [I-1273] it is greater than 10 nM. As for `CNc1cc(Nc2cccn(-c3ccc(C)nc3)c2=O)nc2c(C(=O)N[C@@H]3CCC[C@@H](OC)C3)cnn12` [I-1189], the Kd was less than 0.2 nM. Same read-out and setting: the figure for `CNc1cc(-c2cn([C@H]3CCC[C@@H]3OC)c3ncccc23)nc2c(C(=O)N[C@H]3CC[C@H]3O)cnn12` [I-1223, N-((1S,2R)-2-hydroxycyclobutyl)-5-(1-((1S,2S)-2-methoxycyclopentyl)-1H-pyrrolo[2,3-b]pyridin-3-yl)-7-(methylamino)pyrazolo[1,5-a]pyrimidine-3-carboxamide] is 0.2 to 1 nM; for `CNC(=O)c1occc1Nc1cc(NC)n2ncc(C(=O)N[C@@H]3CC[C@H]3OC)c2n1` [I-1322] it is less than 0.2 nM. For `CCO[C@H]1CC[C@@H]1NC(=O)c1cnn2c(NC)cc(Nc3cccn(-c4ccccn4)c3=O)nc12` [I-1231], the dissociation constant (Kd) was less than 0.2 nM.

The target in the next assay is JAK2 kinase domain (JH1) (Homo sapiens (Human), UniProt O60674). The assay can be described thus: JAK2 Radioactive Kinase Assay. The format is biochemical. The note with it: 10 μM compound; 10 μM ATP. Here is the method: (§1) The Tyk2 and JAK2 radioactive kinase assay measures the percent inhibition at the Tyk2 kinase domain (DH1) and the percent inhibition at the JAK2 kinase domain (JH1). Results of the assay are expressed as percent inhibition at 10 μM.
JAK2 kinase domain (JH1), sequence (O60674 849-1124): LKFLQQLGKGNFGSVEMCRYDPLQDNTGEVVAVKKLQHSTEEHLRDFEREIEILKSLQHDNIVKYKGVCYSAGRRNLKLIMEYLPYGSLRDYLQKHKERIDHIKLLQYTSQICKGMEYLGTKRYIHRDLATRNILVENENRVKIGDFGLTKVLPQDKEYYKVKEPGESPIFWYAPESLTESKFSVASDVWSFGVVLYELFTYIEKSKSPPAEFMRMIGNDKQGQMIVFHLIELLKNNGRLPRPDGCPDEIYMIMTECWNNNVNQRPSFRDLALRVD
Consider `CNc1cc(Nc2cccn(C(C)C)c2=O)nc2c(C(=O)N[C@H]3CC[C@H]3O)cnn12` [I-977], for which the “JAK2 JH1% Inhibition @ 10 μM” value is listed as “A (percent inhibition at 10 μM lower than 50)”. Same read-out and setting: the entry for `CNc1cc(Nc2cccn(-c3ccccc3F)c2=O)nc2c(C(=O)N[C@@H]3CC[C@H]3O)cnn12` [I-940] is “A (percent inhibition at 10 μM lower than 50)”; for `CNc1cc(Nc2cccn(-c3cccnc3C)c2=O)nc2c(C(=O)N[C@H]3CC[C@@H]3OC)cnn12` [I-924] it is “A (percent inhibition at 10 μM lower than 50)”. Turning to `CNc1cc(Nc2cccn([C@H]3CCCOC3)c2=O)nc2c(C(=O)N[C@@H]3CC[C@H]3OC)cnn12` [I-876], the “JAK2 JH1% Inhibition @ 10 μM” value is recorded as “A (percent inhibition at 10 μM lower than 50)”.

The same assay, now with this note: 10 μM compound; 10 μM ATP; read-out: JAK2 JH1% Inhibition @ 10 μM.
Regarding `CNc1cc(Nc2cccn(-c3cncc(F)c3)c2=O)nc2c(C(=O)N[C@H]3CC[C@@H]3OC)cnn12` [I-1084], the inhibition at 10 µM was less than 50%. Same read-out and setting: the result for `CNc1cc(Nc2cccn(-c3cncc(F)c3)c2=O)nc2c(C(=O)N[C@@H]3CC[C@H]3OC)cnn12` [I-1085] reads less than 50%; that for `CNc1cc(Nc2cccn(-c3cccnc3C)c2=O)nc2c(C(=O)N[C@H]3CC[C@@H]3OC)cnn12` [I-865], less than 50%; that for `CNc1cc(Nc2cccn(-c3cccnc3C)c2=O)nc2c(C(=O)N[C@@H]3CC[C@H]3OC)cnn12` [I-925], less than 50%. `CNc1cc(Nc2cccn([C@@H]3CCCOC3)c2=O)nc2c(C(=O)N[C@H]3CC[C@@H]3OC)cnn12` [I-903, N-((1S,2S)-2-methoxycyclobutyl)-7-(methylamino)-5-((2-oxo-1-((R)-tetrahydro-2H-pyran-3-yl)-1,2-dihydropyridin-3-yl)amino)pyrazolo[1,5-a]pyrimidine-3-carboxamide]: the inhibition at 10 µM was less than 50%.

Staying with this assay, now noted: compound at 10 μM; ATP 10 μM.
As to `CNc1cc(Nc2cccn(C3CCOCC3)c2=O)nc2c(C(=O)N[C@H]3CC[C@@H]3O)cnn12` [I-596], the “JAK2 JH1% Inhibition @ 10 μM” value is given as “A (percent inhibition at 10 μM lower than 50)”. The same measure, in the same setting: the result for `CNc1cc(Nc2cccnc2OC)nc2c(C(=O)N[C@@H]3CCC[C@H]3O)cnn12` [I-448, (R)—N-((1R,2R)-2-hydroxycyclopentyl)-5-((2-methoxypyridin-3-yl)amino)-7-(methylamino)pyrazolo[1,5-a]pyrimidine-3-carboxamide] reads “A (percent inhibition at 10 μM lower than 50)”.

Another assay concerns the target Tyk2 kinase domain (DH1) (Homo sapiens (Human), UniProt P29597). The assay can be described thus: Tyk2 Radioactive Kinase Assay. The format is biochemical. The settings on record: 10 μM compound; 10 μM ATP. Here is the method: as §1
With `CNc1cc(Nc2cccn(C(C)C)c2=O)nc2c(C(=O)N[C@H]3CC[C@H]3O)cnn12` [I-977], the “Tyk2 JH1% Inhibition @ 10 μM” value is recorded as “A (percent inhibition at 10 μM lower than 50)”. With `CNc1cc(Nc2cccn(-c3ccccc3F)c2=O)nc2c(C(=O)N[C@@H]3CC[C@H]3O)cnn12` [I-940], the “Tyk2 JH1% Inhibition @ 10 μM” value is listed as “A (percent inhibition at 10 μM lower than 50)”.

The same assay, now with this note: compound at 10 μM; ATP 10 μM.
In the case of `CNc1cc(Nc2cccn(C3CCOCC3)c2=O)nc2c(C(=O)N[C@H]3CC[C@@H]3O)cnn12` [I-596], the “Tyk2 JH1% Inhibition @ 10 μM” value is “A (percent inhibition at 10 μM lower than 50)”. As to `CNc1cc(Nc2cccnc2OC)nc2c(C(=O)N[C@@H]3CCC[C@H]3O)cnn12` [I-448, (R)—N-((1R,2R)-2-hydroxycyclopentyl)-5-((2-methoxypyridin-3-yl)amino)-7-(methylamino)pyrazolo[1,5-a]pyrimidine-3-carboxamide], the “Tyk2 JH1% Inhibition @ 10 μM” value is recorded as “A (percent inhibition at 10 μM lower than 50)”.
